Measurements: patent publication US20200323962A1, “LIPOPHILIC PEPTIDE PRODRUGS” (YISSUM RESEARCH DEVELOPMENT COMPANY OF THE HEBREW …, priority 2017, published 2020)
Like-named read-outs stand apart in the source and are kept apart here. Values belong to the compound of their own block, whether it stands above or below them.

Tests used:
[1] = test system: Caco-2 cells
[2] = pH 7.4, LogD, pH 7.4 (mean / reported value)
[3] = PAMPA, pH 7.4
[4] = in vitro; conditions: human; for efflux ratio at 90 min, 10 µM: Caco-2, pH 7.4, Net efflux (quotient of Papp (BA) to Papp (AB)); for Papp A→B at 90 min, 10 μM: Caco-2, pH 7.4, Papp (AB); for Papp B→A at 90 min, 10 μM: Caco-2, pH 7.4, Papp (BA)
[5] = for Papp A→B: Caco-2, Papp (AB); for Papp B→A: Caco-2, Papp (BA)
[6] = test system: P-gp; test: in vitro; conditions: human, Caco-2, pH 7.4, Net efflux in the presence of Verapamil

Papp (AB), replicate 1 [1]: 0.0 10^−6 cm/s
logD [2]: -0.97
Mass retention [3]: 27%
Permeability, Mean [3]: <−7 Log10[10^−6 cm/s]
Permeability, replicate 1 [3]: <−7 Log10[10^−6 cm/s]
Permeability, replicate 2 [3]: <−7 Log10[10^−6 cm/s]
Permeability, replicate 3 [3]: <−7 Log10[10^−6 cm/s]
efflux ratio at 90 min, 10 µM [4]: 1.1
Papp A→B ([5]; Mean): 0.1 ×10⁻⁶ cm/s
Papp A→B ([5]; replicate 2): 0.1 ×10⁻⁶ cm/s
Papp A→B ([5]; replicate 3): 0.1 ×10⁻⁶ cm/s
Papp B→A ([5]; Mean): 0.1 ×10⁻⁶ cm/s
Papp B→A ([5]; replicate 1): 0.1 ×10⁻⁶ cm/s
Papp B→A ([5]; replicate 2): 0.1 ×10⁻⁶ cm/s
Papp B→A ([5]; replicate 3): 0.2 ×10⁻⁶ cm/s
Compound: C[C@@H]1NC(=O)[C@H](C)NC(=O)[C@@H](C)N(C)C(=O)[C@H](C)N(C)C(=O)[C@H](C)NC(=O)[C@H](C)NC1=O [1,6CHA, *aAAAA*A]

efflux ratio at 90 min, 10 µM [6]: 1.5
efflux ratio at 90 min, 10 µM [4]: 28.6
Papp A→B at 90 min, 10 μM ([4]; Mean): 0.4 ×10⁻⁶ cm/s
Papp A→B at 90 min, 10 μM ([4]; replicate 1): 0.4 ×10⁻⁶ cm/s
Papp A→B at 90 min, 10 μM ([4]; replicate 3): 0.5 ×10⁻⁶ cm/s
Papp B→A at 90 min, 10 μM ([4]; Mean): 12 ×10⁻⁶ cm/s
Papp B→A at 90 min, 10 μM ([4]; replicate 1): 9.4 ×10⁻⁶ cm/s
Papp B→A at 90 min, 10 μM ([4]; replicate 2): 12 ×10⁻⁶ cm/s
Papp B→A at 90 min, 10 μM ([4]; replicate 3): 14.7 ×10⁻⁶ cm/s
Compound: C[C@H]1O[C@@H](O[C@H]2[C@@H](O)C[C@H](O[C@H]3[C@@H](O)C[C@H](O[C@H]4CC[C@@]5(C)[C@H](CC[C@@H]6[C@@H]5C[C@@H](O)[C@]5(C)[C@@H](C7=CC(=O)OC7)CC[C@]65O)C4)O[C@@H]3C)O[C@@H]2C)C[C@H](O)[C@@H]1O [Digoxin]
